Measurements: the NIST ThermoML archive (doi:10.1016/j.tca.2012.05.004)

Assay: xn = mol fraction of the nth substance listed
Details: 101.3 kPa, Liquid, Vibrating tube method

CCCCC(C)O (configuration not stated) [2-hexanol] + ClCCCl
mass density [kg/m3]
Details	288.15 K	293.15 K	298.15 K	303.15 K	308.15 K	313.15 K
x1 = 0.0502	1223.08	1216.04	1208.98	1201.9	1194.78	1187.63
x1 = 0.0999	1188.97	1182.13	1175.27	1168.37	1161.45	1154.5
x1 = 0.1504	1157.18	1150.56	1143.9	1137.21	1130.49	1123.74
x1 = 0.2001	1126.22	1120.72	1114.91	1108.44	1101.9	1095.33
x1 = 0.2498	1099.98	1093.76	1087.5	1081.2	1074.85	1068.47
x1 = 0.2995	1073.96	1068.01	1061.96	1055.85	1049.7	1043.51
x1 = 0.3499	1048.88	1043.06	1037.18	1031.25	1025.28	1019.26
x1 = 0.3999	1025.35	1019.69	1013.99	1008.24	1002.45	996.615
x1 = 0.45	1003.14	997.678	992.164	986.594	980.978	975.219
x1 = 0.4994	982.243	976.929	971.582	966.175	960.716	955.218
x1 = 0.5501	961.948	956.802	951.619	946.386	941.113	935.792
x1 = 0.5999	942.875	937.885	932.861	927.787	922.674	917.511
x1 = 0.6498	924.759	919.925	915.048	910.129	905.161	900.15
x1 = 0.6995	907.657	903.05	898.319	893.543	888.715	883.843
x1 = 0.7499	891.009	886.457	881.863	877.224	872.535	867.8
x1 = 0.8004	874.928	870.513	866.056	861.55	856.996	852.392
x1 = 0.8499	859.958	855.674	851.345	846.966	842.537	838.058
x1 = 0.8998	845.485	841.327	837.125	832.874	828.565	824.204
x1 = 0.9482	831.995	827.968	823.889	819.755	815.567	811.322

CCCCCCC(C)O (configuration not stated) [2-octanol] + ClCCCl
mass density [kg/m3]
Details	288.15 K	293.15 K	298.15 K	303.15 K	308.15 K	313.15 K
x1 = 0.0499	1215.16	1208.22	1201.27	1194.29	1187.27	1180.23
x1 = 0.1	1175.12	1168.45	1161.76	1155.05	1148.31	1141.54
x1 = 0.1503	1139.01	1132.67	1126.33	1119.85	1113.38	1106.89
x1 = 0.2006	1106.43	1100.33	1094.18	1087.99	1081.76	1075.51
x1 = 0.2498	1077.37	1071.56	1065.66	1059.71	1053.73	1047.71
x1 = 0.3	–	–	–	–	1027.49	–
x1 = 0.3002	1050.06	1044.59	1038.96	1033.26	–	1021.69
x1 = 0.35	1025.54	1020.16	1014.7	1009.18	1003.62	998.027
x1 = 0.3999	1002.85	997.633	992.342	987.014	981.649	976.252
x1 = 0.4499	981.685	976.658	971.558	966.415	961.229	956.01
x1 = 0.4999	962.134	957.22	952.273	947.296	942.282	937.233
x1 = 0.5503	943.764	939.011	934.225	929.407	924.551	919.661
x1 = 0.5992	927.273	922.663	918.023	913.351	908.639	903.897
x1 = 0.6492	911.359	906.886	902.382	897.844	893.27	888.66
x1 = 0.6989	896.738	892.39	888.013	883.603	879.157	874.674
x1 = 0.7503	882.325	878.102	873.846	869.558	865.235	860.873
x1 = 0.7989	869.78	865.66	861.514	857.336	853.118	848.865
x1 = 0.8497	857.292	853.282	849.241	845.167	841.058	836.912
x1 = 0.899	845.686	841.775	837.835	833.858	829.849	825.799
x1 = 0.9492	834.672	830.858	827.012	823.127	819.211	815.252

CCCC(C)O (configuration not stated) [pentan-2-ol] + ClCCCl
mass density [kg/m3]
Details	288.15 K	293.15 K	298.15 K	303.15 K	308.15 K	313.15 K
x1 = 0.0509	1226.72	1219.63	1212.52	1205.37	1198.2	1191
x1 = 0.0999	1196.47	1189.53	1182.56	1175.56	1168.53	1161.46
x1 = 0.1497	1167.33	1160.55	1153.74	1146.89	1140.02	1133.12
x1 = 0.2001	1139.13	1132.52	1125.87	1119.19	1112.48	1105.73
x1 = 0.2502	1112.6	1106.17	1099.71	1093.19	1086.65	1080.06
x1 = 0.2998	1087.39	1081.13	1074.82	1068.48	1062.1	1055.67
x1 = 0.3504	1062.46	1056.4	1050.28	1044.1	1037.89	1031.63
x1 = 0.4003	1038.87	1033	1027.05	1021.06	1015.01	1008.92
x1 = 0.4498	1016.42	1010.71	1004.93	999.094	993.214	987.283
x1 = 0.4996	994.615	989.082	983.473	977.807	972.094	966.328
x1 = 0.55	973.401	967.993	962.539	957.039	951.485	945.875
x1 = 0.5998	953.123	947.916	942.637	937.302	931.911	926.465
x1 = 0.6497	933.494	928.405	923.275	918.089	912.85	907.552
x1 = 0.6997	914.579	909.663	904.685	899.659	894.573	889.432
x1 = 0.7493	896.637	891.863	887.037	882.154	877.213	872.217
x1 = 0.8001	878.694	874.079	869.408	864.68	859.891	855.042
x1 = 0.8497	861.674	857.211	852.695	848.111	843.467	838.76
x1 = 0.8991	845.438	841.13	836.763	832.331	827.833	823.267
x1 = 0.9504	828.863	824.722	820.52	816.244	811.899	807.481
